# Experimental data from US20100086529A1, “METHODS OF MAKING CONCENTRATED FIBRINOGEN- AND PLATELET-CONTAINING COMPOSITIONS” (priority 2008, published 2010).
# How the values were obtained:
# [1] = Tensile strength of fibrin clots (dog-bone mold, Instron); conditions: 15 mg/mL fibrinogen concentrate, calcium chloride 1.8 to 100 mM tested
# Procedure: The tensile strength of fibrin clots is tested. […] The narrow neck provided the weakest point where the clot would break; the force at which the clot breaks serves as an indication of its tensile strength.
# Test samples are prepared by simultaneously emptying syringes of fibrinogen and thrombin into a common duct where the mixture entered the mold through the sponge on one end and exited through the sponge on the other end. […] After the sample is given time to “cure,” (30 minutes unless various cure times were being tested), the plexiglass mold is dissembled, and the clot is transferred to an Instron Model 1120 Universal Testing Instrument (Instron Corp., Norwood, Mass., max load 500 g) where it is held on the ends via the sponge “grips”. A stress-strain curve is recorded while the sample is strained at 100 mm/min until it ruptured. The tensile strength is recorded as the maximum stress sustained.
# Samples are prepared from a 15 mg/mL pure fibrinogen concentrate (as prepared in Example 4) as follows:
# The effect of cure time on tensile strength and adhesion strength is evaluated by allowing the molded clots and the glued aortic strips (described in Example 9) to cure for 1, 5, 10, 15, 30, and 60 minutes at 22° C.
# Controls of pooled human plasma (fibrinogen concentration ˜3 mg/mL), pure fibrinogen (15 mg/mL), and Tisseel (average fibrinogen concentration ˜95 mg/mL) are used. […]
# [2] = Adhesion strength of fibrin clots between strips of aortic tissue (Instron); conditions: 15 mg/mL fibrinogen concentrate, calcium chloride 1.8 to 100 mM tested
# Procedure: The adhesive strength of fibrin clots is tested. The adhesion strength of the fibrin glue is assessed by sandwiching the fibrin glue between two strips of aortic tissue and then pulling them apart, simulating the performance of the sealant bonding to tissue. Bovine aorta is prepared by slitting the aorta lengthwise and laying it flat. The aorta is then cut into smaller strips, each approximately 3 cm long and 1 cm wide. […] Sealant is applied (0.1 mL), covering an area of approximately 1 cm^2, to the exposed media as shown. An overlapping joint is formed (approximately one-third the length of each strip) and allowed to “cure” while held in place with a 100 g weight for 30 minutes at 22° C. The non-overlapping ends of the cured samples are clamped in an Instron Model 1120 Universal Testing Instrument (max load 500 g), and a stress-strain curve is recorded while the sample is strained at 100 mm/min until the overlapping (glued) joint failed. Adhesion strength is taken as the maximum stress sustained divided by the joint area (indicated by the glue still visible after the joint failed and measured with a digital caliper).
# The effect of cure time on tensile strength and adhesion strength is evaluated by allowing the molded clots and the glued aortic strips (described in Example 9) to cure for 1, 5, 10, 15, 30, and 60 minutes at 22° C. […]
# [3] = Clottability of precipitated fibrinogen with bovine thrombin (ELISA of clot supernatant, by difference); assay type: biochemical, human; conditions: blood collected into heparin 2 U/mL
# Procedure: The clottability of the recovered fibrinogen is evaluated as follows. A fibrinogen solution as prepared in Example 3 is prepared and used. To 1 mL of the fibrinogen solution 100 μL of bovine thrombin (Vital Products, Inc, Boynton Beach, Fla., 500 Units/mL) is added and the clot is allowed to stand for 30 minutes at 22° C. The clot is then centrifuged for 2 min at 3500 g and the supernatant removed. The amounts of fibrinogen present in the concentrated composition and in the clot supernatant are determined by ELISA, and the fibrinogen present in the clot is determined by difference. […] The amounts of fibrinogen and Factor XIII in the clot supernatant and in the concentrate can be measured with ELISA, and the amounts of fibrinogen and Factor XIII remaining in the clot can be determined by difference.
# fibrinogen = molecular target: T1, fibrinogen (Homo sapiens, UniProt P02671+P02675+P02679); test: Fibrinogen precipitation from plasma by protamine (recovery in the concentrate, ELISA / Clauss method); conditions: n=4
# T1 construct: Fibrinogen is precipitated from pooled human plasma by addition of protamine sulfate; from tissue; host or cells: human blood plasma (pooled human plasma / platelet-poor plasma of healthy adult donors)
# T1 sequence (P02671 20-629 limits assumed): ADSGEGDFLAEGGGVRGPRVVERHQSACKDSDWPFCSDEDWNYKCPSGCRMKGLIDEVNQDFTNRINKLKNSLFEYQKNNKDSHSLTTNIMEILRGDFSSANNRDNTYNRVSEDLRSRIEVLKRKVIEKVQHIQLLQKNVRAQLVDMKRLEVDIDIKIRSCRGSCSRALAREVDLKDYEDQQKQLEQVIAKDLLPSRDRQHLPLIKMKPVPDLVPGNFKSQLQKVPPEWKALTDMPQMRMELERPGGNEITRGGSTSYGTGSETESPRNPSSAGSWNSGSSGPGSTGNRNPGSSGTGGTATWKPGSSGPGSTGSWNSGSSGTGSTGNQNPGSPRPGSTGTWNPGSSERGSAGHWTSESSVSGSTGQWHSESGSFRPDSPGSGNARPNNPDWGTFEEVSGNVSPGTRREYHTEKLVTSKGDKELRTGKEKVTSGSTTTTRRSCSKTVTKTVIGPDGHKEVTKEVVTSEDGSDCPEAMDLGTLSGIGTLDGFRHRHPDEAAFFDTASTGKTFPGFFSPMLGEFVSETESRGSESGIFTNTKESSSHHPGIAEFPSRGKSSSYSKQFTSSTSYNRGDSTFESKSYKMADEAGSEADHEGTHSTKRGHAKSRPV
# T1 sequence (P02675 31-491): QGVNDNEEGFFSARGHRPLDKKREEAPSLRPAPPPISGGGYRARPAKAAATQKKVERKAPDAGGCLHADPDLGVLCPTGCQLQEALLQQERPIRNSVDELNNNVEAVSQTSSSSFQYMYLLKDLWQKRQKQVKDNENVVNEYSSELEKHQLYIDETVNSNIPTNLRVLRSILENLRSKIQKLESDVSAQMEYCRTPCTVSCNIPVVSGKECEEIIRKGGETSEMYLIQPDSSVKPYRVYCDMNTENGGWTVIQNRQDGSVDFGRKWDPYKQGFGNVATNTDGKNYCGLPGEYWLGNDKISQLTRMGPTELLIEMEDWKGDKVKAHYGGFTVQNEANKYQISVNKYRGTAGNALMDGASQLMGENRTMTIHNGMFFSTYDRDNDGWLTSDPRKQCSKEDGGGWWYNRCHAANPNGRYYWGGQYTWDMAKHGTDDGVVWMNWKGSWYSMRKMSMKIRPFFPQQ
# T1 sequence (P02679 27-453): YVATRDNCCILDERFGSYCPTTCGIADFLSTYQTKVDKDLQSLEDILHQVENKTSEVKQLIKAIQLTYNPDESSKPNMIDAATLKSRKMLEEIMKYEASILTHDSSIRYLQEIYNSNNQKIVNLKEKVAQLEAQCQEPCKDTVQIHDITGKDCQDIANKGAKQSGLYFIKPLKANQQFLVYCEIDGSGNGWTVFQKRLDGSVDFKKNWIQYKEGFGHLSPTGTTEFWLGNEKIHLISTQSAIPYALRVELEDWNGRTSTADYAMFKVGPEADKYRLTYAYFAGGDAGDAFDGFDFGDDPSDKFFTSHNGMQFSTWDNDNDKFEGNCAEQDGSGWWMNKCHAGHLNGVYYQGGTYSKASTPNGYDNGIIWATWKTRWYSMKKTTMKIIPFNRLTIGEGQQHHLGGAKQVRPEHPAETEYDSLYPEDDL
# Procedure: Fibrinogen is precipitated from pooled human plasma by addition of protamine sulfate (Sigma Chemical Co.). The protamine sulfate is used to prepare a stock solution of 40 mg/mL. The protamine is then added to the plasma (final concentration=10 mg/mL), mixed, and then centrifuged at 1000 g for 5 min to sediment the precipitate. The plasma is then decanted, and the remaining precipitate is dissolved in 0.2 M sodium citrate (37° C., pH 7.4).
# A concentrated fibrinogen solution is prepared as in Example 3. The fibrinogen and Factor XIII concentrations are evaluated with an enzyme-linked immunosorbent assay (ELISA; AssayPro LLC, Brooklyn, N.Y.). The color intensity of the developed ELISA plates is measured with a Dynex MRX microplate reader (Dynex Technologies, Chantilly, Va.) and compared to a standard curve.
# The fibrinogen concentration in the plasma is measured with the Clauss method, where plasma samples are clotted in the presence of excess thrombin in a CoaData 2000 Fibrintimer (Labor GmbH, Hamburg, Germany). The clotting times are recorded, and the fibrinogen concentration is calculated from a standard curve. […]
# Heparin is used clinically in most procedures requiring anticoagulation. Heparin is evaluated for its effect on fibrinogen and Factor XIII harvesting and subsequent clotting of harvested fibrinogen. […]
compound,measurement,setting,value
[Ca+2].[Cl-].[Cl-] [calcium chloride],calcium concentration giving maximum tensile strength,[1],8.9 to 50 mM
same,calcium concentration giving maximum adhesion strength,[2],3.6 to 100 mM
heparin,change in clottability of fibrinogen when heparin is present,[3],no observed changes
protamine sulfate,fibrinogen in the plasma precipitated (maximum yield),"fibrinogen; blood collected into heparin 2 U/mL, protamine 11 mg/mL in plasma",95±1%
same,fibrinogen precipitated and recovered (percentage of fibrinogen in the original plasma),fibrinogen; blood or plasma protamine concentration of 10 mg/mL,96±4%
